Laboratory results reported in ChEMBL document CHEMBL1201862, “PubChem BioAssay data set” (2004).
The source made the active and inactive calls.

Key:
[1] = target: Sphingosine 1-phosphate receptor 5 (Homo sapiens, UniProt Q9H228); assay: Late stage counterscreen assay for S1P4 antagonists: Fluorescence dose response cell-based screening assay for antagonists of the Sphingosine 1-Phosphate Receptor 5 (S1P5). [Related pubchem assays (depositor defined):AID1510, AID1524, AID1692, AID1853, AID2332, AID489009, AID489017]; assay type: functional
[2] = target: Sphingosine 1-phosphate receptor 3 (Homo sapiens, UniProt Q99500); assay: Late stage counterscreen assay for S1P4 antagonists: Fluorescence dose response cell-based screening assay for antagonists of the Sphingosine 1-Phosphate Receptor 3 (S1P3). [Related pubchem assays (depositor defined):AID1510, AID1524, AID1692, AID1853, AID2332, AID489009, AID489017]; assay type: functional
[3] = target: Sphingosine 1-phosphate receptor 2 (Homo sapiens, UniProt O95136); assay: Late stage counterscreen assay for S1P4 antagonists: Fluorescence dose response cell-based screening assay for antagonists of the Sphingosine 1-Phosphate Receptor 2 (S1P2). [Related pubchem assays (depositor defined):AID1510, AID1524, AID1692, AID1853, AID2332, AID489009, AID489017]; assay type: functional
[4] = target: T1, Sphingosine 1-phosphate receptor 4 (Homo sapiens, UniProt O95977); assay: S1P4 receptor antagonists, human, late-stage follow-up, cell-based, fluorescence, synthesized analogues (AID 2346); assay type: functional
T1 sequence (O95977 whole entry): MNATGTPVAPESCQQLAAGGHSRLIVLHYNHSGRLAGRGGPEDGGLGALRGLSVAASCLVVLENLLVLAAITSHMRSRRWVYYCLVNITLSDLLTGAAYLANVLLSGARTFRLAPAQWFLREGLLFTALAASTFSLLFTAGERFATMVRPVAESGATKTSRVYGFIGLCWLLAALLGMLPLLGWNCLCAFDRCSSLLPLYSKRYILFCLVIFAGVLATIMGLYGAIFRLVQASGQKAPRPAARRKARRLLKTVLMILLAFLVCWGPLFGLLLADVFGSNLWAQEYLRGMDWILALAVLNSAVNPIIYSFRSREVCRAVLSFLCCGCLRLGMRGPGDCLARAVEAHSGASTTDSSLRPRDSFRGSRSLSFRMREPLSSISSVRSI

[5] = target: Sphingosine 1-phosphate receptor 1 (Homo sapiens, UniProt P21453); assay: Late stage counterscreen assay for S1P4 antagonists: Fluorescence dose response cell-based screening assay for antagonists of the Sphingosine 1-Phosphate Receptor 1 (S1P1). [Related pubchem assays (depositor defined):AID1510, AID1524, AID1692, AID1853, AID2332, AID489009, AID489017]; assay type: functional
SUMO E1/E2 = SUMO E1/E2 (Homo sapiens, UniProt P63279+Q9UBE0+Q9UBT2); assay: SAR analysis of SUMOylation using HTRF in an in-Vitro dose response assay. [Related pubchem assays (depositor defined):AID2006, AID2011, AID2018, AID2069, AID2658]; assay type: functional
[6] = target: T2, Voltage-gated N-type calcium channel alpha-1B subunit/Amyloid beta A4 precursor protein-binding family A member 1 (Homo sapiens, UniProt Q00975+Q02410); assay: disruptors of Mint-PDZ/N-type channel peptide interaction – biochemical, HTRF, SAR follow-up (AID 2489); assay type: functional
[7] = target: T2, Voltage-gated N-type calcium channel alpha-1B subunit/Amyloid beta A4 precursor protein-binding family A member 1; assay: disruptors of Mint-PDZ/N-type channel peptide interaction – biochemical, HTRF, set 2, SAR follow-up (AID 434980); assay type: functional
[8] = target: 26S proteasome non-ATPase regulatory subunit 14 (Homo sapiens, UniProt O00487); assay: inhibition of proteasome subunit RPN11 – biochemical, fluorescence polarization, uHTS hits, confirmation (AID 602368); assay type: functional
[9] = target: 72 kDa type IV collagenase (Homo sapiens, UniProt P08253); assay: Dose Response validation of uHTS RPN11 inhibitor hits using a MMP-2 Fluorescence assay.; assay type: functional
[10] = target: T3, Apoptotic protease-activating factor 1 (Homo sapiens, UniProt O14727); assay: activation of Apaf-1 mediated apoptosis – fluorescent, uHTS hits, dose response (AID 588554); assay type: functional
T3 sequence (O14727 whole entry): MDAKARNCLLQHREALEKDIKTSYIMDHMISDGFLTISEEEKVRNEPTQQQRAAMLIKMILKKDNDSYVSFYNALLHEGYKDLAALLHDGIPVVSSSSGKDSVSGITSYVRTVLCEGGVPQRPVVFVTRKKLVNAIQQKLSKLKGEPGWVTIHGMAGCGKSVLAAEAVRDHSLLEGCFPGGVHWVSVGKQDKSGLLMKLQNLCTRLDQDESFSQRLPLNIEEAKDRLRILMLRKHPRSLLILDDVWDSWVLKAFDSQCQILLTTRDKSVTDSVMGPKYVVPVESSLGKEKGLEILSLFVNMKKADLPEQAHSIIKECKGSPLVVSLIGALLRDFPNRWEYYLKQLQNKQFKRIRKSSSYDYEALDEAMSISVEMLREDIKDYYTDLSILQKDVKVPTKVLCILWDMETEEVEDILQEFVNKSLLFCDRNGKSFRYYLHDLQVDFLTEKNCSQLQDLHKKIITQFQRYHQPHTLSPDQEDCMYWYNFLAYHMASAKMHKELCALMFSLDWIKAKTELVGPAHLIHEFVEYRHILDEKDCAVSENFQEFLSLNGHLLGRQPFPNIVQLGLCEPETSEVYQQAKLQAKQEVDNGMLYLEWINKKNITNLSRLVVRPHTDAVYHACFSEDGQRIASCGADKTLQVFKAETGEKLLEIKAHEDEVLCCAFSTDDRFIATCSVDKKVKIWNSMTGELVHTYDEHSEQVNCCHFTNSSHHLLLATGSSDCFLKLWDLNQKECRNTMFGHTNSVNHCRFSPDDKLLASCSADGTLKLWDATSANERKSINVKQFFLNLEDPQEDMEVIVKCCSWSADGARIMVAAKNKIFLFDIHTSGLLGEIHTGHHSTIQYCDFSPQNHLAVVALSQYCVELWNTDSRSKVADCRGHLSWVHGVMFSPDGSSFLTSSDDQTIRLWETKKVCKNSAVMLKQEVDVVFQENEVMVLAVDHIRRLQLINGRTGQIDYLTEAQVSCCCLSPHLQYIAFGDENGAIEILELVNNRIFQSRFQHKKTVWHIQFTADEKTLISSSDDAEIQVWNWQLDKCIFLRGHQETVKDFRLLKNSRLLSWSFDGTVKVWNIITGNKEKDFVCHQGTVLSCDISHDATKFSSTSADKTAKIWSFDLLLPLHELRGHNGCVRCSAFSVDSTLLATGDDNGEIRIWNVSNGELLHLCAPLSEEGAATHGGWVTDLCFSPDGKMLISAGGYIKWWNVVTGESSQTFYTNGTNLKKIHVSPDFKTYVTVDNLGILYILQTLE

[11] = tested on: Streptococcus sp. 'group A'; assay: growth inhibition of control SK(-) GAS strain, dose response, counter-screen for streptokinase expression inhibitor project, luminescence, kanamycin, BacTiterGlo, confirmation (AID 1900); assay type: functional, organism-based
[12] = target: Induced myeloid leukemia cell differentiation protein Mcl-1 (Homo sapiens, UniProt Q07820); assay type: functional
Prothrombin = Prothrombin (Bos taurus, UniProt P00735); assay: thrombin inhibition, dose response, biochemical, fluorescence polarization, uHTS hits (AID 602369); assay type: functional
Streptococcus = assay: Group A Streptococcus viability loss, dose response, counter-screen for streptokinase expression inhibitor project, luminescence, BacTiterGlo (AID 1915); assay type: functional, organism-based;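 further: potency for reduction of bacterial viability or growth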

T2 sequence (Q00975 whole entry): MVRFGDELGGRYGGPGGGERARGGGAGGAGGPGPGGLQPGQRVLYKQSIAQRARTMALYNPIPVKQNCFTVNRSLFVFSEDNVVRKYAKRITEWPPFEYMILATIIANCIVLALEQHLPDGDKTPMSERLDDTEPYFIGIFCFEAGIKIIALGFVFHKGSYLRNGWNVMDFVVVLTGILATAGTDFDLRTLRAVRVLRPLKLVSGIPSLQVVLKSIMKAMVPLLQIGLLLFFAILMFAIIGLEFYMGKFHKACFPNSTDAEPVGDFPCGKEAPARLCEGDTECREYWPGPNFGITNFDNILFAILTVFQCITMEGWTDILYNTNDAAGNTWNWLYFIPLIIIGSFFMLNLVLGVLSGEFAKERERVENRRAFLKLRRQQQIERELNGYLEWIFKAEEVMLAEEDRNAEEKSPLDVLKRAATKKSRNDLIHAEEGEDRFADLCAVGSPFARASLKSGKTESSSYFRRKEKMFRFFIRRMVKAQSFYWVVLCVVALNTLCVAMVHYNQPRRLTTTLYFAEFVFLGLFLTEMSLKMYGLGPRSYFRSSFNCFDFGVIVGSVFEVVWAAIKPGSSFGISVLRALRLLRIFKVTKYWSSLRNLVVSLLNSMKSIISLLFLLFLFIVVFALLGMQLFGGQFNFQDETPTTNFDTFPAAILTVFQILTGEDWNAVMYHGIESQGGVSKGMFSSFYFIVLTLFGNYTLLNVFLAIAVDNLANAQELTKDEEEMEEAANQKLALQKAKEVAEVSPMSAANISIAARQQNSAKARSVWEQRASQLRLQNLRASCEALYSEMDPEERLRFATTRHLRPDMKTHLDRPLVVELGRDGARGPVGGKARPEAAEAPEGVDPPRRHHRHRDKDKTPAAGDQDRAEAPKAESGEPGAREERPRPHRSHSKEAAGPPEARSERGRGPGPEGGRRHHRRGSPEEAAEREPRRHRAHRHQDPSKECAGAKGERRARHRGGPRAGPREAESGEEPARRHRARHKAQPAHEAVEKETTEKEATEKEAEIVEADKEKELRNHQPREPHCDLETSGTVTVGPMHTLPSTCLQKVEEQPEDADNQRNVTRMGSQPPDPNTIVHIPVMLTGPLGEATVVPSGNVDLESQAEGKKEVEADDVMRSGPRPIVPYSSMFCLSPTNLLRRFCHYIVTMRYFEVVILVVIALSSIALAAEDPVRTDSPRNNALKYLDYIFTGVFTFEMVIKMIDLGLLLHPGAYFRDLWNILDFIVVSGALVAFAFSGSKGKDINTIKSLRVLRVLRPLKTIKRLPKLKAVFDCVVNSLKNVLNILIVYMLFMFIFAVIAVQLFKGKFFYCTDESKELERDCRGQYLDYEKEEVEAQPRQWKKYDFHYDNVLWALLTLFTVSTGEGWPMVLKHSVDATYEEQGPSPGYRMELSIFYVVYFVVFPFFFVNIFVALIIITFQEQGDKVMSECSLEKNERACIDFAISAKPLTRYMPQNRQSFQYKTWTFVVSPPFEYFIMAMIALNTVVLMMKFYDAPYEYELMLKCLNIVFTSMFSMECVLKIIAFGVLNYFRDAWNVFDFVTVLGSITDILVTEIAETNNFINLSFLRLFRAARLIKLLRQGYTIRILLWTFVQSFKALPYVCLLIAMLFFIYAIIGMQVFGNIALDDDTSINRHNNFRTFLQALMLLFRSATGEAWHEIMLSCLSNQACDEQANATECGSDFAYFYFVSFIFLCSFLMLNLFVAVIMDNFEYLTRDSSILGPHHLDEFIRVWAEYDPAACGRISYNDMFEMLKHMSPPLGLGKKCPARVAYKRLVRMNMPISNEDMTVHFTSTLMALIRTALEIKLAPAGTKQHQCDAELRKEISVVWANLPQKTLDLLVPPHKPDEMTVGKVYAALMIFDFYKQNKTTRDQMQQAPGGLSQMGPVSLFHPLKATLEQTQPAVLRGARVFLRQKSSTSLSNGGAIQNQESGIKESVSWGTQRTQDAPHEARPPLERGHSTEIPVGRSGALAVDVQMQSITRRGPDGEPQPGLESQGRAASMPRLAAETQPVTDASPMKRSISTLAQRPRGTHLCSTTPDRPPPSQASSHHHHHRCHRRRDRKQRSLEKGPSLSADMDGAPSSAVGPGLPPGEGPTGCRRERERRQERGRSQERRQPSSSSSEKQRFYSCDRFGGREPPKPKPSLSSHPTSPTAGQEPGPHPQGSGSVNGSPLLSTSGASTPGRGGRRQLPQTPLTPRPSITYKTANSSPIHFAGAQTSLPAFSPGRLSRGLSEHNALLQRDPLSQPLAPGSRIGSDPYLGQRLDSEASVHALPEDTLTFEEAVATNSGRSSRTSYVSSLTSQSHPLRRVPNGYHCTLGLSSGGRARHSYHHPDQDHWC
T2 sequence (Q02410 whole entry): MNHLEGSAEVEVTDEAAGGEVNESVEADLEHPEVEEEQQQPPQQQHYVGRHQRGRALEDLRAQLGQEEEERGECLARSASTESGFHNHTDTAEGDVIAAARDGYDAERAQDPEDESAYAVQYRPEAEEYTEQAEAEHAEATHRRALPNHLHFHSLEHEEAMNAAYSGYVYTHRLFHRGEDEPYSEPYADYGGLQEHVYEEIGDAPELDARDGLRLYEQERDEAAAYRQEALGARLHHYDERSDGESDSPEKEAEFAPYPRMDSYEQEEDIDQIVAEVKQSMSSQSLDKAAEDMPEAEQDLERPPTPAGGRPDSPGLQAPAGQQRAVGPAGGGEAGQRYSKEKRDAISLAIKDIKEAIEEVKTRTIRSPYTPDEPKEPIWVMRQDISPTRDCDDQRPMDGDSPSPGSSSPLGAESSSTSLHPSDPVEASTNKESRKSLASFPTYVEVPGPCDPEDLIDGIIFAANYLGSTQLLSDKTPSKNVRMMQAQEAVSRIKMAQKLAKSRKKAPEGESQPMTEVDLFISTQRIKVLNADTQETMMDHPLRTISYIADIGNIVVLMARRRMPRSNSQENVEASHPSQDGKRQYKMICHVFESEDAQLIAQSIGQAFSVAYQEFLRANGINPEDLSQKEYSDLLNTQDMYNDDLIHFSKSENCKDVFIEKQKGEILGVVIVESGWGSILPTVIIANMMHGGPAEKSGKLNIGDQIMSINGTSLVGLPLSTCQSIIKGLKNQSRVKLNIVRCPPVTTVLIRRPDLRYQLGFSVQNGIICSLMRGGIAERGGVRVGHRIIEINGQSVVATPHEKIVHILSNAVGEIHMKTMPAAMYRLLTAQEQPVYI
Sphingosine 1-phosphate receptor 1, sequence (P21453 whole entry): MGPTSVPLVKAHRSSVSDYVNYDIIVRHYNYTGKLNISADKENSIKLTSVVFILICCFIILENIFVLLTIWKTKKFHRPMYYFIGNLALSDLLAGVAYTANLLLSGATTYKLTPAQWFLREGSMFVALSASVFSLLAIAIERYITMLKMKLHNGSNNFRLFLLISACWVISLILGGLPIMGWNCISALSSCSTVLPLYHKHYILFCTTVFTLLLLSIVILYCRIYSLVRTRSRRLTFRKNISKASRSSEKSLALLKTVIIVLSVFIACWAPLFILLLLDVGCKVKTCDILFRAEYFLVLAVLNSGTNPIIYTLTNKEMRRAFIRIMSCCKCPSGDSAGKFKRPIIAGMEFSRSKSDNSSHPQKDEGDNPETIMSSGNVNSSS
Sphingosine 1-phosphate receptor 2, sequence (O95136 whole entry): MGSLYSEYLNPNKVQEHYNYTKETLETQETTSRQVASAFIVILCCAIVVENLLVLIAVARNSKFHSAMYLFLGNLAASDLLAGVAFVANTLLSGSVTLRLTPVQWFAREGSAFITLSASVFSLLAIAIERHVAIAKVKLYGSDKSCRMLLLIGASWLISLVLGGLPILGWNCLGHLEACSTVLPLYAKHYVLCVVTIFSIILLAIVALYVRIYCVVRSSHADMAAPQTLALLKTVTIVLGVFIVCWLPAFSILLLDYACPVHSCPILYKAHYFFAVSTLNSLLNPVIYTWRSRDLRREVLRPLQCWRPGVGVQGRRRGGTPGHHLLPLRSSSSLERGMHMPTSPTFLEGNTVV
Sphingosine 1-phosphate receptor 5, sequence (Q9H228 whole entry): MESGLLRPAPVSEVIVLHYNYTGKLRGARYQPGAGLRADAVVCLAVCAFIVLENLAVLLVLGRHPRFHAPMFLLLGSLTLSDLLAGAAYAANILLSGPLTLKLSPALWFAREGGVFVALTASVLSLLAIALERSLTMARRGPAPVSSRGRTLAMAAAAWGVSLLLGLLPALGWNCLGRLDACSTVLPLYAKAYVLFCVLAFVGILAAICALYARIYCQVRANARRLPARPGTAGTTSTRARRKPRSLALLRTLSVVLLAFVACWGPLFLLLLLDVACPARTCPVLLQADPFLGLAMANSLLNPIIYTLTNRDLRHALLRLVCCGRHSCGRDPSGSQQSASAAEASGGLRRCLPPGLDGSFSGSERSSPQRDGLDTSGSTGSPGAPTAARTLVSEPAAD
26S proteasome non-ATPase regulatory subunit 14, sequence (O00487 whole entry): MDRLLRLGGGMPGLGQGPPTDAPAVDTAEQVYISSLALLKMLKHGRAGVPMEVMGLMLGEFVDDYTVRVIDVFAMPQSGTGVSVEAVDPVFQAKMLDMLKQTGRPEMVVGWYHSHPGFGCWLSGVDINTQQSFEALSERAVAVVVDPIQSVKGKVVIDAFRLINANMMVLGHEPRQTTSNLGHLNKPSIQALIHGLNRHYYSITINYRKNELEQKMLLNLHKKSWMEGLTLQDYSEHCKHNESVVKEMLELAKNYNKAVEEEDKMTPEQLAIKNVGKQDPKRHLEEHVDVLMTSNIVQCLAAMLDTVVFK
Induced myeloid leukemia cell differentiation protein Mcl-1, sequence (Q07820 whole entry): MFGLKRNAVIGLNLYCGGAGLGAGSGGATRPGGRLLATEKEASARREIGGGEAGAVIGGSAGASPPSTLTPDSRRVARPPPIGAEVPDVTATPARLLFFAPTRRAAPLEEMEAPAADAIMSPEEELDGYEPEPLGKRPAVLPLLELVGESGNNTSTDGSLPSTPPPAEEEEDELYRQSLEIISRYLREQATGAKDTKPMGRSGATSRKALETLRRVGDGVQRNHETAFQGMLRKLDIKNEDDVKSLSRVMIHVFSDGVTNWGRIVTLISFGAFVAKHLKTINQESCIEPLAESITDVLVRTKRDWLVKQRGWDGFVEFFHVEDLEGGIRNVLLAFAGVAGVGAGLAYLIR

With `CCc1cccc(C)c1NC(=O)c1ccc(-c2ccccc2Cl)o1` the IC50 [1] was > 25 µM (inactive), the IC50 [2] was > 25 µM (inactive) and the IC50 [3] was > 25 µM (inactive). The IC50 [4] was 0.269 µM (active) and the IC50 [5] was > 25 µM (inactive).

`CN(Cc1ccc(F)cc1)C(=O)COC(=O)c1cc(-c2ccco2)nc2ccccc12` was tested, and the IC50 (SUMO E1/E2) was 2.41 µM (active), the IC50 [6] was 19.1 µM (active) and the IC50 [7] was 11.5 µM (active).

`O=C(O)CCCN1C(=O)/C(=C\c2ccc(-c3nc4ccccc4s3)o2)SC1=S` was tested, and the IC50 [8] was 5.31 µM (active), the IC50 [9] was > 100 µM (inactive) and the EC50 [10] was 5.12 µM (active). For the same compound, the EC50 [11] was 3.67 µM (active), the IC50 [12] was 1.38 µM (active) and the IC50 (Prothrombin) was 70.3 µM (active). For the same compound, the EC50 (Streptococcus) was 7.32 µM (active).
